The conditions of data set [1]: patients; cited from earlier work.
The next data set relates to Pancreatic cancer cells. Briefly: Anti-proliferative effects in pancreatic cancer cells (number of cells over time). The settings on record: Pancreatic cancer cell; in vitro; b60 words: cancer cells (human pancreatic cancer, lung cancer and brain metastasis); read-out: IC50, inhibiting the proliferation of cancer cells. Format: cell-based, human. The procedure:
Pancreatic cancer cells were treated with either LND or Mito-LND at varying concentrations and the number of cells was assayed over time.

Data set [2] concerns H2030BrM3 cells. Briefly: Cellular ROS production, HPLC-based analysis of hydroethidine (HE) oxidation. It is filed as cell-based, human. The settings on record: 200 μM, H2030BrM3 cells. The source says: Inhibition of mitochondrial respiration results in increased O2^⋅− and other oxidants.
For data set [3], the system named is mitochondrial complexes I and II. Briefly: Inhibition of mitochondrial complexes I and II, stated jointly. It is filed as cell-based, human. The source says: LON and Mito-LON inhibit mitochondrial complex I activity. Mito-LON inhibited cellular respiration (oxygen consumption rate, OCR) at >100-fold lower concentration than LON in intact lung cancer cells (FIG. 9). Both basal respiration and the response to mitochondrial stressors (oligomycin, dinitrophenol) were diminished by Mito-LON (not shown). To investigate the mechanism of mitochondrial inhibition, we measured the activity of mitochondrial complexes in H2030BrM3 cells (NSCLC cell line). The cell membrane was permeabilized, and OCR was measured upon addition of substrates and inhibitors of mitochondrial complexes I-IV (FIG. 9A). These studies established the optimal use of permeabilized cells for complex activity assays.^54 Next, cells were pretreated with LON and Mito-LON for 24 h and experiments performed as in FIG. 9A. […] We hypothesize that inhibition of mitochondrial complexes I and II is the predominant mechanism for antiproliferative effects of Mito-LON on lung cancer cells.

A further data set has as its system HK2. As to the kind of experiment: HK2 protein levels and mRNA expression in lung cancer lines. It is filed as cell-based, human. The protocol: (§1) In contrast, Mito-LON (1.2-2.7 μM) targets mitochondrial complexes I and II (FIG. 9); its mitochondrial effects are supported by the compartment-selective oxidation of mitochondrial Prx3 (FIG. 13). The anti-proliferative effects of Mito-LON and LON were compared in H2030BrM3 cells.
Role of HK2 and additional possible signaling events that contribute to the effects of Mito-LON. […] This could contribute to their effects as many cancers have constitutive ERK activation which promotes survival and proliferation, and ERK1 can play an important role in regulating mitochondrial activity, apoptosis, proliferation and migration. […] AKT is another pro-survival factor that is constitutively activated (phosphorylated) in many cancers.

For data set [4], the system named is PC9BrM3 and H2030BrM3 brain metastasis lung cancer cell lines. Briefly: Boyden chamber (transwell) invasion assay. It is filed as cell-based. The note with it: Homo sapiens, H2030-BrM3; LON 100 μM alone; read-out: inhibitory effect on invasion when used alone. The source says: Mito-LON inhibits migration and invasion of brain metastatic human lung cancer cells. To investigate the potential of Mito-LON and LON for lung cancer metastasis, we first tested its effects in vitro via the Boyden chamber invasion assay using PC9BrM3 and H2030BrM3 brain metastasis lung cancer cell lines.

Data set [5] has as its system H2030BrM3 orthotopic lung adenocarcinoma in nude mice. Briefly: Orthotopic lung tumor mouse model. The settings on record: 7.5 μmol/kg oral gavage 5 times/wk for 3 wks, nude mice. Format: in vivo. The procedure: Inhibitory effects of Mito-LON in an orthotopic lung tumor mouse model. We conducted a pilot study using an orthotopic model of lung adenocarcinoma (H2030BrM3 cells) in nude mice. Cells (1×10^6 cells/50 μg of growth factor-reduced Matrigel in 50 μL of RPMI-1640) were injected into the lung. One week after injection, mice were treated with the same dose of LON or Mito-LON (7.5 μmol/kg), or vehicle (corn oil), by oral gavage 5 times/wk for 3 wks.

For data set [6] the following is noted: at clinically relevant concentrations (<130 μM); cited from earlier work.
The subject of data set [7] is H2030BrM3 cells. As to the kind of experiment: Cell proliferation, IncuCyte Live-Cell Imaging Analyzer (cell confluence). Format: cell-based. The note with it: Homo sapiens, H2030-BrM3; H2030BrM3 cells, IncuCyte, FIG. 14; read-out: IC50, cell proliferation. The procedure:
as §1

With `O=C(O)c1nn(Cc2ccc(Cl)cc2Cl)c2ccccc12` [LON, 1-(2,4-dichlorobenzyl)-1H-indazole-3-carboxylic acid, reference compound], the “typical peak plasma levels” value in data set [1] was 17 to 127 µM. Besides, the IC50 in the data set on Pancreatic cancer cells is 327 µM; in data set [3] (pretreatment of H2030BrM3 cells, read-out: IC50, inhibition of complex I and II), about 400 µM; in the data set with HK2 (FIG. 17, read-out: IC50, ability to decrease HK2 levels), 100 to 150 µM; in the data set on H2030BrM3 cells [7], 140 µM. Further, the “intracellular levels of 2-OH-E+ (superoxide-specific product of HE oxidation)” value in the data set with H2030BrM3 cells [2] is on record as “increase”. Also, the “concentration at which effects on complex I and II occur” value in data set [3] is “ca. 400 μM”. In the data set with HK2 (both lung cancer lines, within 3-6 h), the HK2 levels result is reported as “decreased HK2 levels”. In addition, the “decrease of HK2 mRNA expression” value with HK2 (not shown) was over 80%. The inhibition at 100 µM in data set [4] is under 10%. Besides, in [5], the “efficacy in orthotopic lung tumor model” value is “not effective”. Further, the “effectiveness by itself in vitro” value in [6] was “only moderately effective”.
